#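 Compound exposure: 48 hours, 5 concentrations, 96-well plates. GI50 is the concentration that inhibits growth by half.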 Active and inactive are the calls of the source. No stated cut-off is given here; in the data, active = GI50 up to about 1.1 µM and inactive = higher.
# Experiments:
# Assay in all cases: DTP human tumour cell line panel, 48 h
# 786-0 = test system: 786-0
# A498 = test system: A498
# A549 = test system: A549
# ACHN = test system: ACHN
# CCRF-CEM = test system: CCRF-CEM
# COLO 205 = test system: COLO 205
# DLD-1 = test system: DLD-1
# DMS-114 = test system: DMS-114
# DMS-273 = test system: DMS-273
# HCC 2998 = test system: HCC 2998
# HCT-116 = test system: HCT-116
# HCT-15 = test system: HCT-15
# HL-60 = test system: HL-60
# HOP-18 = test system: HOP-18
# HOP-62 = test system: HOP-62
# HOP-92 = test system: HOP-92
# HT-29 = test system: HT-29
# KM-20L2 = test system: KM-20L2
# KM12 = test system: KM12
# LOX IMVI = test system: LOX IMVI
# LXFL 529 = test system: LXFL 529
# M14 = test system: M14
# Malme-3M = test system: Malme-3M
# NCI-H23 = test system: NCI-H23
# NCI-H460 = test system: NCI-H460
# OVCAR-5 = test system: OVCAR-5
# RPMI-8226 = test system: RPMI-8226
# RXF 393 = test system: RXF 393
# SF-268 = test system: SF-268
# SF-295 = test system: SF-295
# SK-MEL-28 = test system: SK-MEL-28
# SK-MEL-2 = test system: SK-MEL-2
# SK-MEL-5 = test system: SK-MEL-5
# SK-OV-3 = test system: SK-OV-3
# SN12C = test system: SN12C
# SNB-19 = test system: SNB-19
# SNB-75 = test system: SNB-75
# SNB-78 = test system: SNB-78
# SR = test system: SR
# SW-620 = test system: SW-620
# TK-10 = test system: TK-10
# U-251 = test system: U-251
# UACC-257 = test system: UACC-257
# XF498 = test system: XF498
# CAKI-1 = test system: CAKI-1
# EKVX = test system: EKVX
# IGROV-1 = test system: IGROV-1
# K562 = test system: K562
# M19-MEL = test system: M19-MEL
# MOLT-4 = test system: MOLT-4
# NCI-H226 = test system: NCI-H226
# NCI-H522 = test system: NCI-H522
# OVCAR-3 = test system: OVCAR-3
# OVCAR-4 = test system: OVCAR-4
# OVCAR-8 = test system: OVCAR-8
# SF-539 = test system: SF-539
# UACC-62 = test system: UACC-62
# UO-31 = test system: UO-31
smiles,measurement,setting,value
Sc1nnc(-c2cccnc2)[nH]1,GI50,786-0,> 100 µM (inactive)
same,GI50,A498,> 100 µM (inactive)
same,GI50,A549,> 100 µM (inactive)
same,GI50,ACHN,> 100 µM (inactive)
same,GI50,CCRF-CEM,> 100 µM (inactive)
same,GI50,COLO 205,> 100 µM (inactive)
same,GI50,DLD-1,> 100 µM (inactive)
same,GI50,DMS-114,> 100 µM (inactive)
same,GI50,DMS-273,> 100 µM (inactive)
same,GI50,HCC 2998,> 100 µM (inactive)
same,GI50,HCT-116,> 100 µM (inactive)
same,GI50,HCT-15,> 100 µM
same,GI50,HL-60,> 100 µM (inactive)
same,GI50,HOP-18,> 100 µM (inactive)
same,GI50,HOP-62,> 100 µM (inactive)
same,GI50,HOP-92,> 100 µM (inactive)
same,GI50,HT-29,> 100 µM (inactive)
same,GI50,KM-20L2,> 100 µM (inactive)
same,GI50,KM12,> 100 µM (inactive)
same,GI50,LOX IMVI,> 100 µM (inactive)
same,GI50,LXFL 529,> 100 µM (inactive)
same,GI50,M14,> 100 µM (inactive)
same,GI50,Malme-3M,> 100 µM (inactive)
same,GI50,NCI-H23,> 100 µM (inactive)
same,GI50,NCI-H460,> 100 µM (inactive)
same,GI50,OVCAR-5,> 100 µM (inactive)
same,GI50,RPMI-8226,> 100 µM (inactive)
same,GI50,RXF 393,> 100 µM (inactive)
same,GI50,SF-268,> 100 µM (inactive)
same,GI50,SF-295,> 100 µM (inactive)
same,GI50,SK-MEL-28,> 100 µM (inactive)
same,GI50,SK-MEL-2,> 100 µM (inactive)
same,GI50,SK-MEL-5,> 100 µM (inactive)
same,GI50,SK-OV-3,> 100 µM (inactive)
same,GI50,SN12C,> 100 µM (inactive)
same,GI50,SNB-19,> 100 µM (inactive)
same,GI50,SNB-75,> 100 µM (inactive)
same,GI50,SNB-78,> 100 µM (inactive)
same,GI50,SR,> 100 µM (inactive)
same,GI50,SW-620,> 100 µM (inactive)
same,GI50,TK-10,> 100 µM (inactive)
same,GI50,U-251,> 100 µM (inactive)
same,GI50,UACC-257,> 100 µM (inactive)
same,GI50,XF498,> 100 µM (inactive)
CN(CCO)c1nc(=O)c2c([nH]1)CCC2,GI50,786-0,> 100 µM (inactive)
same,GI50,A549,> 100 µM (inactive)
same,GI50,ACHN,> 100 µM (inactive)
same,GI50,CAKI-1,> 100 µM (inactive)
same,GI50,CCRF-CEM,> 100 µM (inactive)
same,GI50,COLO 205,> 100 µM (inactive)
same,GI50,DLD-1,> 100 µM (inactive)
same,GI50,DMS-114,> 100 µM (inactive)
same,GI50,DMS-273,> 100 µM (inactive)
same,GI50,EKVX,> 100 µM (inactive)
same,GI50,HCC 2998,> 100 µM (inactive)
same,GI50,HCT-116,> 100 µM (inactive)
same,GI50,HCT-15,> 100 µM
same,GI50,HL-60,> 100 µM (inactive)
same,GI50,HOP-18,> 100 µM (inactive)
same,GI50,HOP-62,> 100 µM (inactive)
same,GI50,HOP-92,> 100 µM (inactive)
same,GI50,HT-29,> 100 µM (inactive)
same,GI50,IGROV-1,> 100 µM (inactive)
same,GI50,K562,> 100 µM (inactive)
same,GI50,KM-20L2,> 100 µM (inactive)
same,GI50,KM12,> 100 µM (inactive)
same,GI50,LOX IMVI,> 100 µM (inactive)
same,GI50,LXFL 529,> 100 µM (inactive)
same,GI50,M14,> 100 µM (inactive)
same,GI50,M19-MEL,> 100 µM (inactive)
same,GI50,MOLT-4,> 100 µM (inactive)
same,GI50,Malme-3M,> 100 µM (inactive)
same,GI50,NCI-H226,> 100 µM (inactive)
same,GI50,NCI-H23,> 100 µM (inactive)
same,GI50,NCI-H460,> 100 µM (inactive)
same,GI50,NCI-H522,> 100 µM (inactive)
same,GI50,OVCAR-3,> 100 µM (inactive)
same,GI50,OVCAR-4,> 100 µM (inactive)
same,GI50,OVCAR-5,> 100 µM (inactive)
same,GI50,OVCAR-8,> 100 µM (inactive)
same,GI50,RPMI-8226,> 100 µM (inactive)
same,GI50,RXF 393,> 100 µM (inactive)
same,GI50,SF-268,> 100 µM (inactive)
same,GI50,SF-295,> 100 µM (inactive)
same,GI50,SF-539,> 100 µM (inactive)
same,GI50,SK-MEL-28,> 100 µM (inactive)
same,GI50,SK-MEL-2,> 100 µM (inactive)
same,GI50,SK-MEL-5,> 100 µM (inactive)
same,GI50,SK-OV-3,> 100 µM (inactive)
same,GI50,SN12C,> 100 µM (inactive)
same,GI50,SNB-19,> 100 µM (inactive)
same,GI50,SNB-75,43.9 µM (inactive)
same,GI50,SNB-78,> 100 µM (inactive)
same,GI50,SR,> 100 µM (inactive)
same,GI50,SW-620,> 100 µM (inactive)
same,GI50,TK-10,> 100 µM (inactive)
same,GI50,U-251,> 100 µM (inactive)
same,GI50,UACC-257,> 100 µM (inactive)
same,GI50,UACC-62,> 100 µM (inactive)
same,GI50,UO-31,> 100 µM (inactive)
same,GI50,XF498,> 100 µM (inactive)
